Laboratory results from ChEMBL document CHEMBL3108755, “Dermacozines H-J isolated from a deep-sea strain of Dermacoccus abyssi from Mariana Trench sediments” (J Nat Prod, 2014).

Test system: Radical scavenging activity
Assay: Antioxidant activity assessed as DPPH radical scavenging activity
Type: functional

SMILES	IC50
O=C1O[C@H]([C@@H](O)CO)C(O)=C1O [ASCORBIC ACID]	12.1 µM
CN1c2cc(C=O)cc(C(=O)O)c2Nc2cccc(C(N)=O)c21	18.8 µM
CN1c2cccc(C(N)=O)c2Nc2c(C(=O)c3ccccc3)ccc(C(N)=O)c21	34.6 µM

Next, values leading:

IC50	SMILES
19.6 µM	CC(=O)NC(CSc1ccc(C(N)=O)c2c1Nc1c(C(N)=O)cc(C(=O)c3ccccc3)cc1N2C)C(=O)O (stereo not given)
8.4 µM	CN1c2cc(C(=O)c3ccccc3)cc(C(=O)O)c2Nc2cccc(C(N)=O)c21
